US20230382894A1, “CCR4 ANTAGONISTS” (CHEMOCENTRYX, INC., priority 2022, published 2023)

What was measured:
CCR4 [1] = target: T1, CCR4 (Homo sapiens, UniProt P51679); assay: CEM cell chemotaxis (migration) assay to CCL22 (MDC) in 100% Fetal Bovine Serum (FBS); format: cell-based; conditions: CEM cells in 100% FBS with 1% HEPEs; recombinant human CCL22 0.1 nM; 37° C. 60 minutes
T1 construct: CEM Cells Endogenous Express CCR4; endogenous in cells; host or cells: CEM cells
T1 sequence (P51679 1-360): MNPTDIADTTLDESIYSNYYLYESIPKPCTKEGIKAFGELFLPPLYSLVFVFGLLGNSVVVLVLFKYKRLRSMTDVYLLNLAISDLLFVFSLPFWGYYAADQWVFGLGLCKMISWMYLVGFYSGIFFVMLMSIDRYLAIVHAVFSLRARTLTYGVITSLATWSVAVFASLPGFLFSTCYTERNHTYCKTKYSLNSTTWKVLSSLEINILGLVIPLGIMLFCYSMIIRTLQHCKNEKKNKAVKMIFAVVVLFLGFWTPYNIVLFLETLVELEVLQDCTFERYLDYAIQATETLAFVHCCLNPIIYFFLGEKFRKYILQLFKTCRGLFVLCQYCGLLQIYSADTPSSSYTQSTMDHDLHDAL
Method in brief: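 Endogenously CCR4-expressing CEM cells in 100% FBS with 1% HEPES were preincubated with serially diluted compound (top final 10 μM) and allowed to migrate through 5 μm polycarbonate membranes toward 0.1 nM human CCL22 (EC50) for 60 min at 37 °C. Migrated cells were quantified by CyQUANT fluorescence.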

CCR4 [2] = target: T1, CCR4; assay: CEM cell chemotaxis (migration) assay to CCL22 (MDC) in HBSS buffer with 0.1% BSA; format: cell-based; conditions: CEM cells in HBSS with 0.1% BSA; recombinant human CCL22 0.1 nM; 37° C. 60 minutes
Source text: CEM Cells Endogenous Express CCR4
A chemotaxis assay can be used to determine the efficacy of potential receptor antagonists at blocking the migration mediated through chemokine receptors, such as CCR4. This assay is routinely performed using the ChemoTX® microchamber system with a 5 μm pore-sized polycarbonate membrane.
HBSS: CEM Cells are collected by centrifugation at 400×g at room temperature, then suspended at 5 million/ml in Hanks' Balanced Salt Solution (HBSS) buffer with 0.1% BSA. The compound being tested is serially diluted from a maximum final concentration of 10 μM (or an equivalent volume of its solvent (DMSO)) and is then added to the cell/buffer mixture. Separately, recombinant human CCL22 (MDC) at its EC50 concentration (0.1 nM) is placed in the lower wells of the ChemoTX® plate. The 5-μm (pore size) polycarbonate membrane was placed onto the plate, and 20 μL of the cell/compound mixture is transferred onto each well of the membrane. The plates are incubated at 37° C. for 60 minutes, after which the polycarbonate membranes are removed and 5 μl of the DNA-intercalating dye CyQUANT (Invitrogen, Carlsbad, CA) is added to the lower wells. The amount of fluorescence, corresponding to the number of migrated cells, is measured using a Spectrafluor Plus plate reader (TECAN, San Jose, CA).

| IC50 (CCR4 [1]) [µM] | IC50 (CCR4 [2]) [µM] | SMILES |
| --- | --- | --- |
| < 0.1 | < 0.1 | C[C@@H](Nc1nc(N2CCC(N(CCO)C(=O)[C@H]3CCCN3)CC2)ncc1Cl)c1ccc(Cl)cc1Cl [Example 1.064] |
| < 0.1 | < 0.1 | CC(Nc1nc(N2CCC(C(=O)N(C)C3CCNC3)CC2)ncc1Cl)c1ccc(Cl)cc1Cl (stereo not shown) [Example 1.065] |
| < 0.1 | < 0.1 | C[C@@H](Nc1nc(N2CCN(C(=O)[C@@H]3CCN(C)C3)CC2)ncc1Cl)c1ccc(Cl)cc1Cl [Example 1.066] |
| 0.1 to 1 | < 0.1 | C[C@@H](Nc1nc(N2CCC(NC(=O)[C@@H]3CCN(C)C3)CC2)ncc1Cl)c1ccc(Cl)cc1Cl [Example 1.067] |
| < 0.1 | < 0.1 | CNC1CCN(C(=O)C2CCN(c3ncc(Cl)c(N[C@H](C)c4ccc(Cl)cc4Cl)n3)CC2)C1 (stereo partly shown) [Example 1.068] |
| < 0.1 | < 0.1 | C[C@@H](Nc1nc(N2CCN(C(=O)[C@H]3C[C@@H](O)CN3)CC2)ncc1Cl)c1ccc(Cl)cc1Cl [Example 1.069] |
| < 0.1 | < 0.1 | C[C@@H](Nc1nc(N2CCN(C(=O)[C@@H]3CCNC3)CC2)ncc1Cl)c1ccc(Cl)cc1Cl [Example 1.070] |
| < 0.1 | < 0.1 | Cc1cnc(N2CCN(C(=O)[C@H]3CCCN3)CC2)nc1N[C@H](C)c1ccc(Cl)cc1Cl [Example 1.071] |
| < 0.1 | < 0.1 | C[C@@H](Nc1nc(N2CCN(C(=O)N(C)CCN(C)C)CC2)ncc1Cl)c1ccc(Cl)cc1Cl [Example 1.072] |
| 0.1 to 1 | > 1 | C[C@@H](Nc1nc(N2CCN(C(=O)[C@H]3CCC(=O)N3)CC2)ncc1Cl)c1cccc(Cl)c1 [Example 1.075] |
| < 0.1 | < 0.1 | CC(Nc1nc(N2CCN(C(=O)[C@H]3CCC(=O)N3)CC2)ncc1Cl)c1c(F)cc(Cl)cc1F (stereo partly shown) [Example 1.076] |
| < 0.1 | < 0.1 | C[C@@H](Nc1nc(C2CCN(C3CCCN(CCC(=O)O)C3)CC2)ncc1Cl)c1ccc(Cl)cc1Cl (stereo partly shown) [Example 1.077] |
| < 0.1 | < 0.1 | C[C@@H]1CN(C(=O)[C@H]2CCC(=O)N2)CCN1c1ncc(Cl)c(N[C@H](C)c2ccc(Cl)cc2Cl)n1 [Example 1.078] |
| < 0.1 | < 0.1 | C[C@@H](Nc1nc(N2CCN(C(=O)[C@H]3CCS(=O)(=O)N3)CC2)ncc1Cl)c1ccc(Cl)cc1Cl [Example 1.079] |
| < 0.1 | < 0.1 | C[C@@H](Nc1nc(N2CCN(C(=O)[C@H]3CCCN3)CC2)nc(N)c1Cl)c1ccc(Cl)cc1Cl [Example 1.080] |
| < 0.1 | < 0.1 | C[C@@H](Nc1nc(N2CCN(C(=O)[C@H]3CCC(=O)N3)C[C@@H]2C)ncc1Cl)c1ccc(Cl)cc1Cl [Example 1.081] |
| < 0.1 | < 0.1 | CC(Nc1nc(N2CCN(C(=O)[C@H]3CCC(=O)N3)CC2)ncc1Cl)c1cc(F)c(Cl)cc1Cl (stereo partly shown) [Example 1.082] |
| > 1 | > 1 | C[C@@H](Nc1nc(N2CCN(C(=O)[C@H]3CCC(=O)N3)CC2)ncc1Cl)c1cc(Cl)cc(Cl)c1 [Example 1.083] |
| > 1 | > 1 | C[C@H](Nc1nc(N2CCN(C(=O)[C@H]3CCC(=O)N3)CC2)ncc1Cl)c1cc(F)c(Cl)cc1Cl [Example 1.110] |

| IC50 (CCR4 [1]) [µM] | IC50 (CCR4 [2]) [µM] | SMILES |
| --- | --- | --- |
| < 0.1 | < 0.1 | Cc1nc(N2CCN(C(=O)[C@H]3CCC(=O)N3)CC2)nc(N[C@H](C)c2ccc(Cl)cc2Cl)c1Cl [Example 1.113] |
| > 1 | 0.1 to 1 | C[C@@H](Nc1nc(N2CCC(NC(=O)C3CCOCC3)CC2)ncc1Cl)c1ccc(Cl)cc1Cl [Example 1.130] |
| > 1 | 0.1 to 1 | C[C@@H](Nc1nc(N2CCC(NC(=O)[C@@H]3CNCCO3)CC2)ncc1Cl)c1ccc(Cl)cc1Cl [Example 1.131] |
| > 1 | > 1 | C[C@@H](Nc1nc(N2CCC(N3CC(=O)NC3=O)CC2)ncc1Cl)c1ccc(Cl)cc1Cl [Example 1.132] |
| > 1 | 0.1 to 1 | C[C@@H](Nc1nc(N2CCC(C(=O)N3CC[C@H](O)[C@@H](N(C)C)C3)CC2)ncc1Cl)c1ccc(Cl)cc1Cl [Example 1.133] |
| < 0.1 | < 0.1 | C[C@@H](Nc1nc(N2CCN(C(=O)[C@H]3CCN(C(N)=O)C3)CC2)ncc1Cl)c1ccc(Cl)cc1Cl [Example 1.134] |
| < 0.1 | < 0.1 | C[C@@H](Nc1nc(N2CCN(C(=O)[C@H]3COCCN3)CC2)ncc1Cl)c1ccc(Cl)cc1Cl [Example 1.135] |
| > 1 | > 1 | C[C@@H](Nc1nc(N2CCC(NC(=O)[C@H]3CC(F)(F)CN3)CC2)ncc1Cl)c1ccc(Cl)cc1Cl [Example 1.136] |
| < 0.1 | < 0.1 | C[C@@H](Nc1nc(N2CCN(C(=O)[C@H]3CCC(=O)N3)CC2)ncc1Cl)c1ccc(Cl)cc1Cl [Example 1.148] |
| < 0.1 | < 0.1 | C[C@@H](Nc1nc(N2CCN(C(=O)[C@H]3CCNC3)CC2)ncc1Cl)c1ccc(Cl)cc1Cl [Example 1.150] |
| < 0.1 | < 0.1 | C[C@@H](Nc1nc(N2CCN(C(=O)[C@H]3CCCN3)[C@H](C(=O)O)C2)ncc1Cl)c1ccc(Cl)cc1Cl [Example 1.151] |
| > 1 | 0.1 to 1 | C[C@@H](Nc1nc(N2CCN(C(=O)[C@H]3CCCN3C3CC(C)(C(=O)O)C3)CC2)ncc1Cl)c1ccc(Cl)cc1Cl (stereo partly shown) [Example 1.152] |
| > 1 | > 1 | C[C@@H](Nc1nc(N2CCN(C3CN[C@H](C(=O)O)C3)CC2)ncc1Cl)c1ccc(Cl)cc1Cl (stereo partly shown) [Example 1.153] |
| < 0.1 | < 0.1 | C[C@@H](Nc1nc(N2CCN(C(=O)[C@@H]3NC(=O)[C@@H]4C[C@@H]43)CC2)ncc1Cl)c1ccc(Cl)cc1Cl [Example 1.251] |
| > 1 | > 1 | C[C@H](Nc1nc(N2CCN(C(=O)[C@H]3CCC(=O)N3)CC2)ncc1Cl)c1ccc(Cl)cc1Cl [Example 1.252] |
| > 1 | > 1 | C[C@H](Nc1nc(N2CCN(C(=O)[C@@H]3CCC(=O)N3)CC2)ncc1Cl)c1ccc(Cl)cc1Cl [Example 1.253] |
| < 0.1 | > 1 | C[C@@H](Nc1nc(N2CC[C@H](NC(=O)[C@@H]3CCC(=O)N3)[C@@H](O)C2)ncc1Cl)c1ccc(Cl)cc1Cl [Example 1.254] |
| > 1 | > 1 | C[C@@H](Nc1nc(N2CCN(C(=O)[C@H]3CCC(=O)N3)CC2)ncc1Cl)c1ccccn1 [Example 1.256] |
| < 0.1 | < 0.1 | Cc1nc(N2CCN(C(=O)[C@H]3CCC(=O)N3)CC2)nc(N[C@H](C)c2cc(F)c(Cl)cc2Cl)c1Cl [Example 1.258] |
